Experimental data reported in patent US8916517B2, “Analogs of pituitary adenylate cyclase-activating polypeptide (PACAP) and methods for their use” (The Administrators of the Tulane Educational Fund, priority 2009, dated 2014).
Values joined by “and” are separate entries in the source; they are usually repeats but may differ in a detail not shown here. Equal values may be shown once. “Also recorded” adds a separate entry of the source. Read-outs that look alike come from different tables or passages of the source.

Columns and labels:
[1] = test system: ischemia/reperfusion injury to the kidney; experiment: Serum creatinine after renal ischemia/reperfusion injury in mice; format: in vivo, male C57BL/6 mice; conditions: 20 micrograms i.p. 1, 24 and 48 h after start of reperfusion; 45 min renal artery clamping; 72 hours
Protocol: FIG. 6 is a graph showing the effects of PACAP38 and two novel PACAP analogs on serum creatinine levels in mice following ischemia/reperfusion injury to the kidney. The renal artery in male C57BL/6 mice was clamped bilaterally for 45 minutes in all mice except for the sham-operated mice. Twenty micrograms of PACAP38 or one of the PACAP analogs were given intraperitoneally 1 hour after the start of reperfusion and additional doses were given at 24 and 48 hours after the initial dose. The sham-operated group of mice was injected intraperitoneally with PACAP38 on the same schedule as the mice subjected to ischemia/reperfusion. The control group of mice was injected intraperitoneally with the same volume of saline as for the injections of PACAP38 on the same schedule. All of the mice were euthanized 24 hours after the final injection of saline, PACAP38 or one of the novel PACAP analogs. Each value represents the mean plus/minus the standard error of four determinations. **p<0.01 and *p<0.05 compared to the ischemia/reperfusion group treated with saline. I/R, ischemia/reperfusion; sham, sham-operated.

[2] = test system: human renal proximal tubule epithelial cells; experiment: Reduction of gentamicin-induced apoptotic cell death of human renal proximal tubule epithelial cells; format: cell-based; conditions: gentamicin 24 hours
Protocol: The inhibitory effects of PACAP38 and the novel PACAP analog on apoptotic cell death was assessed by the quantitative determination of cytoplasmic histone-associated DNA-fragmentation (mono- and oligonucleosomes) after exposure to gentamicin for 24 hours. […] Each value represents the mean plus/minus the standard deviation of four determinations. **p<0.01 and *p<0.05 compared to the group treated only with gentamicin.

[3] = test system: rat renal proximal tubule epithelial cells; experiment: Reduction of cisplatin-induced apoptotic cell death of renal proximal tubule epithelial cells (histone-associated DNA fragmentation); format: cell-based; conditions: cisplatin 24 hours; for reduction in cisplatin-induced apoptotic cell death: 10^-6 M in the medium
[4] = test system: human myeloma cell line (MM.1 R); experiment: Proliferation of dexamethasone-resistant myeloma cell line MM.1R (bromodeoxyuridine incorporation); format: cell-based; conditions: FIG. 9
Protocol: (§1) FIG. 9 is a graph showing the effects PACAP38, [Pip^3,Ala^14,17,Aib^16,28,Lys^34,D-Lys^38] PACAP38(SEQ ID NO: 6) and dexamethasone on the proliferation of light-chain immunoglobulin-secreting human myeloma cell line (MM.1 R) that was derived from a patient who was being treated for multiple myeloma with a dexamethasome-containing regimen. The light-chain immunoglobulin-secreting multiple myeloma cells were cultured in RPMI 1640 medium supplemented with 10% non-inactivated fetal bovine serum and 0.05mM 2-mercaptoethanol. The effects of dexamethasone, PACAP38 and the novel PACAP38 analog on cell proliferation were assessed by determining the incorporation of bromodeoxyuridine into DNA during cell division. Each value represents the mean plus/minus the standard error of four-six determination. The cell lines in FIGS. 8 and 9 were obtained from the same patient at different stages of the treatment (Greenstein et al., Exp Hematol 31 :271-282, 2003).

[5] = test system: transient focal cerebral ischemia; conditions: 48 hours, cited from earlier work
[6] = test system: human myeloma cell line (MM.1S); experiment: Proliferation of myeloma cell line MM.1S (bromodeoxyuridine incorporation); format: cell-based; conditions: FIG. 8
Protocol: as §1, with “FIG. 8” for “FIG. 9”, “PACAP38, [Pip^3,Ala^14,17,Aib^1 6,28,Lys^34,D-Lys^38 (SEQ” for “PACAP38, [Pip^3,Ala^14,17,Aib^16,28,Lys^34,D-Lys^38] PACAP38(SEQ”, “line (MM.1S)” for “line (MM.1 R)”, “novel PACAP38analog” for “novel PACAP38 analog”, “four-six determinations.” for “four-six determination.”, “Exp HematoI31” for “Exp Hematol 31”

[7] = test system: light-chain immunoglobulin-secreting human multiple myeloma cells; experiment: Inhibition of proliferation of light-chain immunoglobulin-secreting human multiple myeloma cells (bromodeoxyuridine incorporation); format: cell-based
Protocol: FIG. 3 is a table listing the EC50 for the inhibitory effects of PACAP38, PACAP27, VIP, and eight novel PACAP analogs on the proliferation of light-chain immunoglobulin-secreting myeloma cells. The light-chain immunoglobulin-secreting human multiple myeloma cells were cultured in RPMI 1640 medium supplemented with 10% non-inactivated fetal bovine serum and 0.05 mM 2-mercaptoethanol. The effects of PACAP38, PACAP27, VIP, and the eight novel PACAP analogs on myeloma cell proliferation were assessed by determining incorporation of bromodeoxyuridine into DNA during cell division. The number of myeloma cells approximately doubled during the 24-hour incubation period in the absence of treatment with PACAP-like peptides. Five different concentrations, ranging from 10^-13 M to 10^-5 M, were tested for PACAP38, PACAP27, VIP, and each of the eight novel PACAP analogs. The EC50 was calculated from the concentration response curve using the software package Prism (Graph Pad, San Diego, CA). Each value represents the mean of four-six determinations per experiment. The EC50 for PACAP38 is based on the average of four separate experiments, while the EC50 for PACAP27 and [Pip^3,Aib ^16,28,Ala^17,Lys^34,D-LysIPACAP 38 (SEQ ID NO: 4) is based on the average of two separate experiments.
FIG. 4 is a graph showing a representative concentration response curve from a single experiment on the inhibitory effects PACAP38 and six PACAP38 analogs on the proliferation of light-chain immunoglobulin-secreting human myeloma cells. Each value represents the mean plus/minus the standard error of four-six determinations. Note that replacing pipecolic acid in position 3 of the novel analogs with either nipecotic acid or isonipecotic acid results in an analog with more than four orders of magnitude lower inhibitory potency.
The effects of PACAP38, PACAP27, VIP, and PACAP analogs on myeloma cell proliferation were assessed by determining incorporation bromodeoxyuridine into DNA during cell division. […]

[8] = humans; cited from earlier work
[9] = test system: rat hippocampal neuron/glia co-cultures; conditions: gp120 as neurotoxin; cited from earlier work
PAC1 receptor = molecular target: T1, PAC1 receptor (Homo sapiens, UniProt P41586); conditions: cited from earlier work
T1 sequence (P41586 21-468): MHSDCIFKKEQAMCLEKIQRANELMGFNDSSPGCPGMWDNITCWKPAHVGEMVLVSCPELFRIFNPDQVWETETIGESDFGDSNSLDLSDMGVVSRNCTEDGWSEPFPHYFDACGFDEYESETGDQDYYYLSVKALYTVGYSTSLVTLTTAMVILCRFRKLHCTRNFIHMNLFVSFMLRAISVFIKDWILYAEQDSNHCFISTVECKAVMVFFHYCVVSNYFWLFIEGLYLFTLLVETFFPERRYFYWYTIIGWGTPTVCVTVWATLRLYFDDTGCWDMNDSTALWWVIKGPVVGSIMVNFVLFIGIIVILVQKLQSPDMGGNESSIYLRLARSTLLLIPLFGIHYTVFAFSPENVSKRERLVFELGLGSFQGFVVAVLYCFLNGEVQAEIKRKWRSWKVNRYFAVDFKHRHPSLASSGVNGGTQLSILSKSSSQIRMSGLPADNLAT

[10] = rat, in vivo, iv; cited from earlier work

HSDGIFTDSYSRYRKQMAVKKYLAAVLGKRYKQRVKNK [PACAP38]
reversal of the rise in serum creatinine caused by ischemia/reperfusion [1]: almost completely reversed | cytoprotective potency, PACAP38 versus [Pip^3]PACAP38 [2]: more effective | reduction in gentamicin-induced apoptotic cell death ([2]; various concentrations): significant dose-dependent reduction; also recorded: dose-dependent inhibition | reduction in cisplatin-induced apoptotic cell death [3]: significant reduction | sensitivity of cell proliferation [4]: still sensitive | reduction of the infarct volume ([5]; continuous i.v. infusion beginning 4 hours after start of 2-hour MCAO): approximately 51% | reduction of the infarct volume ([5]; continuous i.v. infusion beginning 8 hours after start of 2-hour MCAO): ~22% | reduction of the infarct volume ([5]; continuous i.v. infusion beginning 12 hours after start of 2-hour MCAO): ~12% | sensitivity of cell proliferation [6]: sensitive | EC50 ([7]; 24-hour incubation, FIG. 3, read-out: concentration giving 50% inhibition of the rate of proliferation (EC50)): ~0.25 nM

PACAP
only untoward effect reported [8]: transient flushing | peaks of bimodal dose-response curve for prevention of neuronal death [9]: 10^−13 M and 10^−10 M

VIP
reduction in cisplatin-induced apoptotic cell death [3]: reduced | cytoprotective potency compared with PACAP38 ([3]; comparable concentrations): significantly less potent than PACAP38 | potency compared with PACAP38 or the novel PACAP38 analogs ([7]; inhibition of myeloma cell proliferation): significantly less potent | affinity for PAC1 receptor relative to PACAP (PAC1 receptor): 1,000 times less

[^125I]-PACAP38
half-life in the bloodstream [10]: 5 to 6 min
